Activity calls are given as the source filed them.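 The calls were made as follows: active = EC50 no more than a set limit of log units above the highest dose; inactive = the rest.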

The test deals with S. pyogenes SKKanGAS, kanamycin survival, BacTiterGlo, 6 h. Put plainly: S. pyogenes SKKanGAS kanamycin growth inhibitors – SKKanGAS strain, luminescence, dose confirmation, streptokinase promoter inhibitor project, dose response (AID 1902).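 Also: lower survival reflects blocked streptokinase promoter driving kanamycin resistance gene.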
On to `CCN1CCN(C(c2ccc(C(F)(F)F)cc2)c2ccc3cccnc3c2O)CC1` (stereo unspecified), for which the EC50 was 1.82 µM.

With `COCc1cc(=O)[nH]c(Nc2nc3ccc(C)cc3o2)n1`, the EC50 is 2.27 µM.

On to `COCCn1c(N)c(C(=O)NS(=O)(=O)c2ccc(C)cc2)c(=O)[nH]c1=O`, for which the EC50 is > 15 µM (inactive).

Take `O=C(Nc1nc2ccc(F)cc2s1)c1ccccn1`: the EC50 is 0.694 µM.

As to `Cc1oc(-c2ccc(F)cc2)nc1CN(Cc1ccccn1)CC1CCCO1` (stereo unspecified), the EC50 is 2 µM.

As for `Cc1ccc(/C=C/C2=NN(Cc3ccc(Cl)c(Cl)c3)C(=O)CC2)cc1`, the EC50 is 7.83 µM.

As to `COc1ccc2[nH]c3c(C)c4ccncc4c(C)c3c2c1`, the EC50 is 1.87 µM.

On to `Cc1nc2c(-c3ccccc3)c(C)[nH]n2c(=O)c1Cc1ccccc1`, for which the 50% effective concentration (EC50) was 6.27 µM.

As to `Cc1ccc(C(=O)Nc2nnc(S(=O)(=O)N3CCN(c4ccc(F)cc4)CC3)s2)cc1`, the EC50 is > 15 µM (inactive).

On to `Cc1cc(N/N=C\c2ccc(Br)cc2)nc(-n2nc(C)cc2C)n1`, for which the EC50 was 0.414 µM.

Turning to `O=C(NCc1ccccn1)C(=O)Nc1nc(C23CC4CC(CC(C4)C2)C3)cs1`, the EC50 was 1.65 µM.

Regarding `Cc1cc(N/N=C/c2cccc(Cl)c2)nc(-n2nc(C)cc2C)n1`, the EC50 is 0.966 µM.

On to `CN(c1ccccc1)S(=O)(=O)c1ccc(C(=O)Nc2nnc(-c3ccc(F)cc3)o2)cc1`, for which the EC50 was 0.225 µM.

For the compound `CCCC(=O)Nc1ccc2c(c1)nc(CCNC(=O)c1ccccc1)n2C`, the EC50 was > 15 µM (inactive).

With `O=C(NNC(=S)NC(=O)c1ccc(Br)cc1)c1cccc([N+](=O)[O-])c1`, the EC50 is 0.892 µM.

As to `COc1ccc(C(=O)NC(=S)NNC(=O)COc2ccccc2)cc1`, the EC50 was 0.666 µM.

In the case of `N=C1S/C(=C\c2cn[nH]c2-c2ccc(F)cc2)C(=O)N1c1ccccc1F`, the EC50 was 3.65 µM.

Regarding `COc1cccc(C(=O)NC(=S)N2CCN(c3ccc(C(F)(F)F)cc3[N+](=O)[O-])CC2)c1`, the EC50 is > 15 µM (inactive).

As to `CC1(C)CC(c2nc(-c3ccc(Cl)cc3)cs2)CCS1` (stereo unspecified), the EC50 was 6.7 µM.

Regarding `C/C(=N\NC(=O)c1ccccc1O)C1C(=O)c2ccccc2C1=O`, the EC50 was 4.69 µM.

For the compound `CNC[C@@H](CC1CCCCC1)NC[C@H](CC(C)C)NCCc1cccc(C(F)(F)F)c1`, the EC50 is 5.4 µM.

On to `CCCn1c(NC(=O)c2cccc(C)c2C)nc2ccccc21`, for which the EC50 was 7.37 µM.

Consider `COc1ccccc1C(=O)NNC(=S)NC(=O)c1ccco1`, for which the EC50 is 0.383 µM.

Take `COCC1=C(C(=O)OC(C)OC(=O)OC(C)C)N2C(=O)[C@@H](NC(=O)/C(=N\OC)c3csc(N)n3)[C@H]2SC1` (stereo partly specified): the EC50 is 0.797 µM.

Regarding `COC(=O)c1sc(-c2ccc(C(C)(C)C)cc2)cc1NC(=O)CSCC(=O)O`, the concentration giving a half-maximal response (EC50) was 3.91 µM.

Take `N#Cc1ccccc1CN1C(=O)S/C(=C/c2cccn2-c2ccc(C(=O)O)cc2)C1=O`: the EC50 was 7.03 µM.

In the case of `CCOC(=O)C1=C(N)Oc2ccc3ccccc3c2C1c1ccc(O)cc1` (stereo unspecified), the concentration for a half-maximal effect (EC50) is 5.68 µM.

Consider `O=C(c1cccs1)N1CCC(c2nc3c(nnn3Cc3ccccc3Cl)c(=O)[nH]2)CC1`, for which the EC50 is 7.09 µM.

Regarding `COc1ccc(Cl)cc1NC(=O)CN1CCC(n2nnc3cc(C)ccc32)CC1`, the concentration giving a half-maximal response (EC50) was 10.8 µM.

As to `Cc1ccccc1C(=O)NNC(=S)NC(=O)c1cccs1`, the EC50 was 2.31 µM.

Regarding `CCOC(=O)c1cnc(-n2nc(C)cc2C)nc1NNc1cc(C)nc(-c2ccccc2)n1`, the EC50 is 0.237 µM.

For `CC(/C=C/c1ccc(N(C)C)cc1)=N/N=C1/NC(=O)CC(C(=O)Nc2ccc(Cl)cc2)S1` (stereo unspecified), the EC50 was 2.38 µM.

As to `CCOC(=O)[C@@H]1[C@H]2COc3ccccc3[C@H]2N2C(=O)N(c3ccc(C(F)(F)F)cc3)C(=O)[C@]12C`, the half-maximal effective concentration (EC50) is 6.08 µM.

On to `O=C(N/N=C\C=C\c1ccc([N+](=O)[O-])o1)c1cccs1`, for which the EC50 was 1.97 µM.

Regarding `CN(Cc1ccc(OC(F)F)cc1)Cc1nc2c(Br)cc(Br)cc2c(=O)[nH]1`, the EC50 is 2.98 µM.

Regarding `COc1ccc(CCN2CC(C(=O)NCCc3ccccn3)CCC2=O)cc1` (stereo unspecified), the EC50 is > 15 µM (inactive).

`Nc1c(S(=O)(=O)c2ccccc2)c2nc3ccccc3nc2n1/N=C/c1cccc(O)c1`: the EC50 is 5.22 µM.

Take `CCc1ccc2c(c1)C1(NN=C(c3cccc4ccccc34)S1)C(=O)N2` (stereo unspecified): the EC50 was 0.115 µM.

Consider `c1csc(-c2csc3nc(CN4CCOCC4)nc(NCc4ccc5c(c4)OCO5)c23)c1`, for which the EC50 is 4.94 µM.

On to `CCN(CC)c1ccc(/C=N/Nc2nc3ccccc3[nH]2)c(O)c1`, for which the EC50 was 3.17 µM.

Turning to `CC(C)(C)c1nnc(N/N=C/c2cc(Br)ccc2O)n(N)c1=O`, the 50% effective concentration (EC50) is 2.12 µM.

In the case of `COc1ccc(-c2nnc(NC(=O)c3ccc(S(=O)(=O)N4CCCc5ccccc54)cc3)o2)cc1`, the EC50 was 0.149 µM.

With `Clc1ccccc1Sc1ccc(-c2ccccn2)s1`, the EC50 is 5.48 µM.

`Cc1cccc(Nc2nc(N)nc(CN3CCN(c4ccccc4F)CC3)n2)c1`: the EC50 was 15.4 µM.

Take `COc1ccc(S(=O)(=O)N[C@@H](C)C(=O)OCC(=O)Nc2cc3oc4ccccc4c3cc2OC)cc1`: the EC50 is 1.42 µM.

Take `CCOc1ccc(-n2cc(-c3ccccc3)c3c(=S)nc[nH]c32)cc1`: the EC50 is 5.73 µM.

Turning to `Cc1cccc(C)c1NC(=S)N/N=C/c1ccc(OCCC(C)C)cc1`, the EC50 is 2.49 µM.

As for `CN(C)CCCNC(=S)NCC(c1ccc(Cl)cc1Cl)c1c[nH]c2ccccc12` (stereo unspecified), the EC50 is 7.22 µM.

Consider `Nc1nc(N)c2cc(Sc3ccc4ccccc4c3)ccc2n1`, for which the 50% effective concentration (EC50) was 0.115 µM.

As to `Cc1nc2c(C(=O)Nc3ccc(N4CCCC(O)C4)cc3)snc2c(=O)[nH]1` (stereo unspecified), the EC50 was 4.46 µM.

For the compound `CCN(CC)S(=O)(=O)c1cccc(C(=O)Nc2nc3cc4c(cc3s2)OCCO4)c1`, the EC50 was 0.976 µM.

`Clc1ccccc1C(c1ccccc1)(c1ccccc1)n1ccnc1`: the EC50 is 6.21 µM.

Regarding `O=C(NC(=S)N1CCN(C(c2ccccc2)c2ccccc2)CC1)c1ccc(S(=O)(=O)N2CCOCC2)cc1`, the EC50 is 2.56 µM.

In the case of `CCOC(=O)N1CCN(C(=O)c2ccc3c(=O)n(CCC4=CCCCC4)c(=S)[nH]c3c2)CC1`, the EC50 was 7.74 µM.

Consider `Fc1ccc(-c2csc3ncnc(N4CCc5ccccc5C4)c23)cc1`, for which the EC50 was 2.73 µM.

As to `c1ccc(OCc2nc3c4c(ncn3n2)-c2ccccc2CC42CCCC2)cc1`, the EC50 was 11.7 µM.

Turning to `Cc1ccccc1C(=O)Oc1cccc(Nc2ncnc3ccccc23)c1`, the EC50 is 3.57 µM.

In the case of `Cc1nnc(SCC2=C(C(=O)O)N3C(=O)C(NC(=O)C(C)n4nc(C(F)(F)F)cc4C)C3SC2)s1` (stereo unspecified), the EC50 is 0.14 µM.

`Cn1cnnc1SCc1ccc(C(=O)N=Nc2c(O)n(Cc3ccc(Cl)cc3)c3ccccc23)cc1`: the EC50 is 4.51 µM.

As to `Oc1c(C(Nc2nc3ccccc3s2)c2ccco2)ccc2cccnc12` (stereo unspecified), the half-maximal effective concentration (EC50) was 2.98 µM.

For the compound `Oc1ccc(/C=N/Nc2nc(-c3ccc(Cl)cc3)cc(C(F)(F)F)n2)cc1`, the EC50 is 7.89 µM.

As for `CC(=O)NS(=O)(=O)c1ccc(N=c2ssc3c2-c2ccc(C)cc2NC3(C)C)cc1`, the EC50 is 2.92 µM.

On to `N#Cc1c(-c2ccccc2)c(-c2ccccc2)nn(CC(=O)NNC(=O)Nc2ccc(Cl)c(Cl)c2)c1=O`, for which the EC50 was 5.3 µM.

For the compound `Cc1ccc2nc(/N=C(\N)NC(=O)NC3CCCCC3)nc(C)c2c1`, the EC50 was 1.15 µM.

With `COc1ccc(-c2sc3ccccc3c2C#CC2(O)CCCCC2)cc1`, the EC50 was 4.58 µM.

`O=C(Nc1ccccc1C(=O)Nc1nnc(C(F)(F)F)s1)c1ccccc1Cl`: the EC50 was 1.34 µM.

Broadly, the EC50 is the midpoint of the concentration-response curve.

Values taken from PubChem BioAssay AID1902 (Broad Institute, 2009).
